Laboratory results taken from PubChem BioAssay (NCI).
“And” between values parts separate entries of the source, which are not always exact repeats. Equal values may be shown once.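 Five concentrations, 48 hours, 96-well plates. GI50 is the concentration that inhibits growth by half. TGI is the concentration that stops growth completely.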

Key:
Assay in all cases: NCI tumour cell line growth inhibition, 48 h
HCT-15 colon = test system: HCT-15 colon
OVCAR-3 ovarian = test system: OVCAR-3 ovarian
A549 NSCLC = test system: A549 NSCLC
UO-31 renal = test system: UO-31 renal
NCI-H522 lung = test system: NCI-H522 lung
HCC-2998 colon = test system: HCC-2998 colon
SF-539 CNS = test system: SF-539 CNS
CCRF-CEM leukemia = test system: CCRF-CEM leukemia
PC-3 prostate = test system: PC-3 prostate
HS 578T breast = test system: HS 578T breast

Row | SMILES | TGI (HCT-15 colon) [µM] | TGI (OVCAR-3 ovarian) [µM] | TGI (A549 NSCLC) | TGI (UO-31 renal) [µM] | TGI (NCI-H522 lung) [µM] | TGI (HCC-2998 colon) | TGI (SF-539 CNS) | TGI (CCRF-CEM leukemia) | GI50 (PC-3 prostate) | TGI (PC-3 prostate) | GI50 (HCT-15 colon) | GI50 (OVCAR-3 ovarian) | GI50 (A549 NSCLC) | GI50 (UO-31 renal) | GI50 (HCC-2998 colon) | GI50 (SF-539 CNS) | GI50 (CCRF-CEM leukemia) | GI50 (NCI-H522 lung) | GI50 (HS 578T breast) | TGI (HS 578T breast)
1 | C/C(=N\NC(N)=S)c1ccc(/C(C)=N/NC(N)=S)cc1 | > 100 | > 100 | > 100 µM | > 100 | > 100 | > 100 µM | > 100 µM | > 100 µM | – | – | – | – | – | – | – | – | – | – | – | –
2 | O=S(=O)(O)C(F)(F)C(F)(F)C(F)(F)C(F)(F)F | > 100 | > 100 | > 100 µM | > 100 | – | > 100 µM | > 100 µM | > 100 µM | – | – | – | – | – | – | – | – | – | – | – | –
3 | C/C(=N\NC(N)=S)c1ccc2c(c1)OCO2 | > 100 | > 100 | > 100 µM | > 100 | > 100 | > 100 µM | > 100 µM | > 100 µM | – | – | – | – | – | – | – | – | – | – | – | –
4 | COc1cc(C)cc2c1OC(c1ccccc1)CC2=O (stereo not given) | > 100 | > 100 | > 100 µM | > 100 | – | > 100 µM | > 100 µM | > 100 µM | > 100 µM | > 100 µM | > 100 µM | > 100 µM | > 100 µM | > 100 µM | > 100 µM | > 100 µM | > 100 µM | – | – | –
5 | Cn1cnc2c(F)c(Nc3ccc(Br)cc3Cl)c(C(=O)NOCCO)cc21 | > 100 | > 100 | > 100 µM | > 66 | > 100 | > 10 µM and 2.77 µM | > 100 µM | > 100 µM | > 100 µM | > 100 µM | > 10 µM and 40.5 µM | > 10 µM and 62.9 µM | 6.85 µM and 10.8 µM | 1.45 µM and 3.38 µM | 0.0213 µM and < 0.0171 µM | > 10 µM and 22.4 µM | > 94.6 µM | > 10 µM and 61.3 µM | > 10 µM and 32.5 µM | > 100 µM
6 | Cc1cccc(C(C)(C)C)c1NC(=O)CC1C(=O)Nc2ccccc2S1=O (stereo not given) | > 100 | > 100 | > 100 µM | > 100 | > 100 | > 100 µM | > 100 µM | – | – | – | – | – | – | – | – | – | – | – | – | –
7 | O=[N+]([O-])c1ccc(Cc2nc3ccccc3s2)cc1 | > 100 | > 100 | > 100 µM | > 100 | > 100 | > 100 µM | 70.4 µM | > 100 µM | – | – | – | – | – | – | – | – | – | – | – | –
8 | N=C(c1ccccc1)N1CCCCC1 | – | – | > 100 µM | > 100 | > 100 | > 100 µM | > 100 µM | – | – | – | – | – | – | – | – | – | – | – | – | –
9 | CC(C)=CC(=O)Cc1nc2ccccc2[nH]c1=O | > 100 | > 100 | > 100 µM | > 100 | – | > 100 µM | > 100 µM | > 100 µM | – | – | – | – | – | – | – | – | – | – | – | –
10 | OCCN(CO)CN(CN(CO)CCO)c1nc(N(CN(CO)CCO)CN(CO)CCO)nc(N(CN(CO)CCO)CN(CO)CCO)n1 | – | – | 131 ng/mL | – | – | – | 3.91 ng/mL | 2.52 ng/mL | 1.48 ng/mL | 4.46 ng/mL | – | – | 1.81 ng/mL | – | – | 1.42 ng/mL | 0.55 ng/mL | – | 1.74 ng/mL | 45.1 ng/mL
11 | COc1ccc(C2(CN(C)C)COc3cc(OC)c(OC)cc3C2=O)cc1OC (stereo not given) | – | > 100 | > 100 µM | > 100 | > 100 | > 100 µM | > 100 µM | 58.1 µM | – | – | – | – | – | – | – | – | – | – | – | –
12 | CCN=C1NN=C(c2ccccc2)c2cc(Cl)ccc2N1 | 48.6 | 43.7 | > 100 µM | 70.2 | 30.2 | 34.4 µM | 35.8 µM | > 100 µM | – | – | – | – | – | – | – | – | – | – | – | –
13 | COc1cc2c(cc1OC)-c1c(cnn1C1OC(COC(C)=O)C(OC(C)=O)C(OC(C)=O)C1OC(C)=O)CC2 (stereo not given) | > 100 | > 100 | > 100 µM | > 100 | 37.3 | – | > 100 µM | > 100 µM | – | – | – | – | – | – | – | – | – | – | – | –
14 | N#CCCc1nc2ccc(Br)cc2c(=O)n1-c1ccc(O)c([N+](=O)[O-])c1 | 38.3 | 41.4 | > 100 µM | 78.9 | 31.8 | 37.4 µM | 34.4 µM | 71.7 µM | – | – | – | – | – | – | – | – | – | – | – | –
15 | O=C(Nc1ccc(C(F)(F)F)cc1[N+](=O)[O-])C(=O)C(C(=O)c1ccc2ccccc2c1)C1OC(=O)c2ccccc21 (stereo not given) | 51.4 | > 51 | > 71.3 µM | 28.8 | 16.4 | 18.3 µM | 5.03 µM | 35.5 µM | – | – | – | – | – | – | – | – | – | – | – | –
16 | CCc1ccccc1NC(=O)CCc1nc(=S)[nH][nH]1 | > 100 | > 100 | > 100 µM | > 100 | > 100 | > 100 µM | > 100 µM | > 100 µM | – | – | – | – | – | – | – | – | – | – | – | –
17 | CSC(=S)N(C)c1nc(=[N+](C)C)ss1 | > 100 | – | > 100 µM | > 100 | > 100 | > 100 µM | > 100 µM | > 100 µM | – | – | – | – | – | – | – | – | – | – | – | –
18 | Cc1ccccc1C(C#N)/C(=N/NC(=O)c1cc2ccccc2cc1O)C(=O)Nc1cccc(Cl)c1 (stereo not given) | > 100 | 92.7 | > 100 µM | 8.4 | 78.3 | 78.5 µM | 69.9 µM | > 100 µM | – | – | – | – | – | – | – | – | – | – | – | –
19 | COc1cc2c(/C=C3/C(=O)Nc4ccccc43)c(Cl)n(Cc3ccccc3)c2cc1C | > 100 | > 100 | > 100 µM | > 100 | > 100 | – | > 100 µM | > 100 µM | 87.9 µM | > 100 µM | > 100 µM | > 100 µM | > 100 µM | 83.4 µM | – | > 100 µM | 29.1 µM | > 100 µM | > 100 µM | > 100 µM
20 | CCCOc1ccc(/C=C\c2cc(OC)c(OC)c(OC)c2)cc1 | > 100 | > 100 | > 100 µM | > 100 | > 100 | – | > 100 µM | > 100 µM | – | – | – | – | – | – | – | – | – | – | – | –
21 | CC(=O)/C=C1/c2ccccc2N(C(C)=O)C1O (stereo not given) | > 100 | > 100 | > 100 µM | > 100 | – | > 100 µM | > 100 µM | > 100 µM | – | – | – | – | – | – | – | – | – | – | – | –
22 | CNC(=O)c1cc(Oc2ccc3nc(NC(=O)Nc4ccc(Cl)c(Cl)c4)sc3c2)ccn1 | > 100 | 5.38 | – | 3.96 | > 100 | > 100 µM | 4.69 µM | > 100 µM | – | – | 3.71 µM | 2.31 µM | – | 2.08 µM | 5.04 µM | 2.17 µM | > 100 µM | 4.09 µM | 2.77 µM | 6.66 µM
